Measured values as given in publication PMC2151541 (The Journal of General Physiology, 2006).

Target: muscle acetylcholine nicotinic receptor (AChR), adult mouse muscle, wild type (Mus musculus, UniProt P02716+P04756+P09690+P20782)
Assay: cell-attached single-channel patch clamp
Type: cell-based

Chain of muscle acetylcholine nicotinic receptor (AChR), adult mouse muscle, wild type (P02716 25-520): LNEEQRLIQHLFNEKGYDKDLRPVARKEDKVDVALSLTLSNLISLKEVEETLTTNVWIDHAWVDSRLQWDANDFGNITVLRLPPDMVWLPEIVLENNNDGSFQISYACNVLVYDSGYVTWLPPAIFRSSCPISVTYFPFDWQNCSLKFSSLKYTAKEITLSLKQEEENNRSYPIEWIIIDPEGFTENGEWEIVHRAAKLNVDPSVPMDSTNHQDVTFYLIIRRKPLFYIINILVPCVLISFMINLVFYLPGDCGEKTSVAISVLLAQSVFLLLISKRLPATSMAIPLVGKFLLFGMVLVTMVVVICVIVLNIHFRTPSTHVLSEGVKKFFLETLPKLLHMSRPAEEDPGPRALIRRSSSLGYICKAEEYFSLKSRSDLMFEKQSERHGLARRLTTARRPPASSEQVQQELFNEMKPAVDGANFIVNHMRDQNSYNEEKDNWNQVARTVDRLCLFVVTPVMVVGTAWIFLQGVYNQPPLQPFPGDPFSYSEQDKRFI
Chain of muscle acetylcholine nicotinic receptor (AChR), adult mouse muscle, wild type (P20782 21-493): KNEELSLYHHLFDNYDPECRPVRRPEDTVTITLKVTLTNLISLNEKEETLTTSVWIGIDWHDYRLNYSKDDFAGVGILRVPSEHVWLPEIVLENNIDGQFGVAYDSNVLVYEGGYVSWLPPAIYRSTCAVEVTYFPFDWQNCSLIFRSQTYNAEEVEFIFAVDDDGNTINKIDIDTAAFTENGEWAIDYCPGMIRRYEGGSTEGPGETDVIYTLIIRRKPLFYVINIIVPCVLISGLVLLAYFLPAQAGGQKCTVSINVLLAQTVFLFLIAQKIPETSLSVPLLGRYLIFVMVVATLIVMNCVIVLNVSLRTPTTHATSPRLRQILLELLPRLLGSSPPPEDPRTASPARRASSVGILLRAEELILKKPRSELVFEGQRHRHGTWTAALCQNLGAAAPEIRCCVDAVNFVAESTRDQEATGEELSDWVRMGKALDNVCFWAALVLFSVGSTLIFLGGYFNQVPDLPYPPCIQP
Chain of muscle acetylcholine nicotinic receptor (AChR), adult mouse muscle, wild type (P04756 21-457): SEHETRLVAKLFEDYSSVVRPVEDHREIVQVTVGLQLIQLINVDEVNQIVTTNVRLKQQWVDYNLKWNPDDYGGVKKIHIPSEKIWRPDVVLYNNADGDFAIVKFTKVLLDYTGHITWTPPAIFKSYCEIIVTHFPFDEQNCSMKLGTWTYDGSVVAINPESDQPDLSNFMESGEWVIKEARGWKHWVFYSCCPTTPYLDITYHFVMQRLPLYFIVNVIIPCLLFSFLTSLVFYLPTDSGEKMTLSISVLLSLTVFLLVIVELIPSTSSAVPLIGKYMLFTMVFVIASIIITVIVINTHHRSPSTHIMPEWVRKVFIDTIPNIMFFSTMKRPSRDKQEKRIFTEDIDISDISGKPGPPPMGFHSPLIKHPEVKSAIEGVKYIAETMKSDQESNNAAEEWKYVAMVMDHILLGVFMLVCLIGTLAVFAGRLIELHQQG
Chain of muscle acetylcholine nicotinic receptor (AChR), adult mouse muscle, wild type (P09690 24-501): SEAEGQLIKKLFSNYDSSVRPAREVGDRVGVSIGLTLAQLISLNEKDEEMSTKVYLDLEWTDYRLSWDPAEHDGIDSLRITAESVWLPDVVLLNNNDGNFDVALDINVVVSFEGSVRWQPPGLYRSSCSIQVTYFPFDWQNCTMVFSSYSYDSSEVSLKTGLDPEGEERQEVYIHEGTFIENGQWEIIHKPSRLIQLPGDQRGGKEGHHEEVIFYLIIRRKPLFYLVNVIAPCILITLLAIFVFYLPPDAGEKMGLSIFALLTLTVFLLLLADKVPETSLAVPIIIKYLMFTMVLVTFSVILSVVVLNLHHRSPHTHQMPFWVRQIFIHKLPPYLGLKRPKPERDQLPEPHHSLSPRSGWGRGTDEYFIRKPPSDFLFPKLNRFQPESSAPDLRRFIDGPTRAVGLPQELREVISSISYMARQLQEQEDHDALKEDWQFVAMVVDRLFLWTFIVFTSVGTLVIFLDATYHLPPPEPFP

- Kd: 12.5 mM
SMILES: C[N+](C)(C)CCO [choline]
